According to patent EP4659739A9, “TOPICAL FORMULATION COMPRISING NON-COVALENT KERATIN-ACTIVE AGENT CONJUGATES FOR THERAPEUTIC USE” (Rigi Therapeutics AG, priority 2024, dated 2025):

How the values were obtained:
[1] = Penetration kinetics of Mometasonfuroat, Franz diffusion cell, HPLC; assay type: in vitro ADME, human
Description: Um den Einfluss von monomerem beta-Keratin auf die Pharmakokinetik von Wirkstoffen nachzuweisen, wurde in einer halbfesten Cremematrix (Monovo® 1 mg/g Creme) gelöstes Mometasonfuroat, als Modellwirkstoff mit 2% Keratinpartikeln versetzt und zur Ausbildung von nicht-kovalenten Proteine-Wirkstoff-Konjugaten homogen verrührt und inkubiert. Zur Objektivierung der pharmakokinetischen Unterschiede wurde eine Diffusionskinetik der Formulierung ohne und mit Beimischung von Keratinpartikeln vergleichend bestimmt.
In der vorliegenden Studie wurde eine HPLC-Methode zur Quantifizierung von Mometasonfuroat in Proben aus der Penetrationsstudie verwendet. Es wurde eine analytische HPLC-UV-Methode entwickelt und validiert. Zur Bestimmung der Wiederfindung wurden dazu 3 Proben der Prüfformulierung mit 1,8 mL Lösungsmittel 1 h lang inkubiert (Laborschüttler, 150 U/min), anschließend zentrifugiert (13.000 U/min, 10 min) und gemessen. Die Wiederfindungsraten wurden mit den experimentell ermittelten Konzentrationen der Prüfgegenstände berechnet. Werte zwischen 95 % und 105 % wurden als unbeeinflusst und damit als korrekt angenommen.
Für jede Testformulierung wurden drei Humanhautproben, d. h. von drei verschiedenen Spendern untersucht. Jede Hautprobe ergab drei Stanzbiopsien zu drei verschiedenen Zeitpunkten, d. h. insgesamt […] Proben je Testformulierung. […]

[2] = system: Chorion-Allantois-Membran; assay: HET-CAM, preclinical tolerability; design: species or system Gallus gallus domesticus
Description: Als Screening hinsichtlich der Hautverträglichkeit der Keratinpartikel wurde dieses in eine halbfeste Formulierung eingearbeitet und an der Chorion-Allantois-Membran von acht- bis neuntägigen Gallus gallus domesticus Embryonen (Rasse: New Hampshire) getestet.
Die Hautverträglichkeit der Keratinpartikel wurde an der Chorion-Allantois-Membran von acht- bis neuntägigen Hühnerembryonen getestet. Befruchtete Hühnereier wurden hierfür acht bis neun Tage lang bei 37°C und 55 % Luftfeuchtigkeit bebrütet. Alle 12 Stunden wurden die Eier gewendet, ausgenommen die letzten 24 Stunden vor Versuchsbeginn. Die Öffnung der Eier wurde an den nach oben gerichteten Eierpolen durchgeführt, wofür die Eierschalen kreisrund (Ø 1,5 cm) geöffnet wurden. Nach dem Abnehmen der Eischalen wurden die Eihäute mit einer 37°C warmen 0,9%-igen NaCl-Lösung befeuchtet. Anschließend wurden unter der Sterilbank die äußeren Eihäute mittels Schere und Pinzette entfernt und die Chorion-Allantois-Membranen freigelegt. […] Die halbfeste Keratinpartikel-haltige Formulierung konnte nun an den gut ausgebildeten und unbeschädigten Blutgefäßen der Chorion-Allantois-Membranen aufgetragen und getestet werden. Das Testpräparat wurde an insgesamt sechs Eiern getestet, maximal 30 Minuten nach der Öffnung der Eier.
Im Rahmen der HET-CAM Untersuchungen wurden von dem Testpräparat (2,88 mg/ml kolloidale Keratin-Lösung in 0,5 % Hydoxyethylcellulose-Gel) je 200 µl auf die Chorion-Allantois-Membran appliziert und diese für insgesamt 300 Sekunden beobachtet. Während dieser Zeit wurden die Veränderungen an der Membran, hinsichtlich des Zeitpunktes des Auftretens (Irritationsscore, IS) und der Festlegung des Schweregrades zum Ende der Beobachtungszeit, dokumentiert. Hierbei wurden folgende Kriterien bewertet: Hämorrhagien (H) - das Auftreten von Blutungen; Gefäßlyse (L) - das Transparentwerden von Gefäßen und Koagulation (C) - das Stagnieren des Blutflusses als Zeichen der intravasalen Gerinnung. Als Negativkontrolle wurde steriles Wasser und als Positivkontrolle eine 1 %-ige Natriumlaurysulfat-Lösung eingesetzt. Die Berechnung des Irritationsscores (IS) erfolgte anhand der ICCVAM-Kriterien.
Als Bewertungskriterien des ISs wurden folgende Grenzwerte definiert:
Der Schweregrad von Veränderungen zum Ende des Beobachtungszeitraums wurde nach den folgenden Kriterien eingestuft:
Die Hämorrhagie (H) wurde entsprechend des Ausmaßes von Erythrozytenextravasaten den Kategorien halbquantitativ wie folgt zugeordnet: Einzelne Kapillarblutungen bei morphologisch intakten Kapillaren wurden als leichte, multiple Kapillarblutungen bei morphologisch intakten Kapillaren als mäßige und morphologisch geschädigte Kapillaren mit Kapillarblutungen oder Massenblutungen als schwere Hämorrhagie eingestuft. Vereinzelte transparente Kapillarabschnitte wurden als leichte, die Transparenz von ganzen Kapillaren als mäßige und das Auftreten von kompletten Gefäßlysen als schwere Lyse bewertet. Die Koagulation (C) wurde entsprechend des Ausmaßes von Koagulationsphänomenen den Kategorien halbquantitativ wie folgt zugeordnet: Einzelne Kapillarthrombosen bei morphologisch intakten Kapillaren wurden als leichte, multiple Kapillarthrombosen bei morphologisch intakten Kapillaren als mäßige und geschädigte Kapillaren mit langstreckigen Kapillarthrombosen als schwere C eingestuft. Die eingesetzten Hühnereier wurden nach einer Lagerung für 48 Stunden bei -20°C, hygienisch entsorgt. Tab.

[3] = summary Tab. 7, mean severity after 300 s

Structure (SMILES)	kutane Bioverfügbarkeit [1]	IS-C ([2]; summary Tab. 7)	IS-Gesamt ([2]; summary Tab. 7)	IS-H ([2]; summary Tab. 7)	IS-L ([2]; summary Tab. 7)	SG-C [2, 3]	SG-H [2, 3]	SG-L [2, 3]
C[C@@H]1C[C@H]2[C@@H]3CCC4=CC(=O)C=C[C@]4(C)[C@@]3(Cl)[C@@H](O)C[C@]2(C)[C@@]1(OC(=O)c1ccco1)C(=O)CCl [Mometasonfuroat]	keinen relevanten Einfluss	–	–	–	–	–	–	–
CCCCCCCCCCCCOS(=O)(=O)O [1 % Natriumlaurylsulfat-Lösung, Natriumlaurylsulfat]	–	6,01	9,80	2,89	0,90	3,00	1,67	0,42
